Laboratory results as given in paper PMC6025875, “Genetic manipulation of Leishmania donovani threonyl tRNA synthetase facilitates its exploration as a potential therapeutic target” (PLoS Neglected Tropical Diseases, 2018).

What was measured:
[1] = biological target: T1, threonyl tRNA synthetase (LdThrRS) (Leishmania donovani, UniProt A0A3S7X901); assay: ITC at […]°C (N = […]); also inhibits aminoacylation of the purified enzyme, IC50 […]; assay type: binding
T1 construct: gene LdCL_350019100; full-length recombinant LdThrRS with N-terminal His6 tag (rLdThrRS, pET30a, E. coli BL21 (DE3))

purified protein = substrate: C[C@@H](O)[C@H](N)C(=O)O; assay: purified protein

## C[C@@H]1C[C@H](C)C[C@H](C)[C@@H](O)CC(=O)O[C@H]([C@@H]2CCC[C@H]2C(=O)O)C/C=C/C=C(/C#N)[C@H](O)[C@@H](C)C1 [borrelidin]
[1]
  Kd: 40 nM

B1: threonyl tRNA synthetase (LdThrRS) (Leishmania donovani) (protein)
chain: MSGKKKAAEATVDLATLAEPGFWRQRVEIFEQLWQQQQNRYESMKAPIKVSLPDGKVMDAESWVTCPLDIAKRLSNSLPDKVIVARVNEALWDLTRPFEADCQLELLDWDDKDAREVFWHSSSHVLGYALERIFDTKLSVGPALEEGGFFYEGLTNRPVSESDYKAIESAMQELVKQKMPYQRLEVSKEDALRLFGYTEFKSKILASKVPDGGSCTVYRCGMLIDPCRGPHLPDTGRVKAFAVTKNSSSYFEGKAENEVLQRVYGISFPKNPMLTEWKTIQEEAAKRDHRVIGRQQNLFNFHEVSPGSAFWLPHGTRIYNTLVEFLRKKYRRCGFQEVISPNMYSSKLWMVSGHWEKYADNMFCTKCEKEDFGLKPMNCPGHCIMFASQPHSYKELPIRYADFGVLHRNELSGALTGLTRVRRFQQDDAHIFCRMDQITDEMEGQMQFLSDVYGVLGFKFYFYHSTRPANKLGSDALWDQSESYLRTALNRFCGIPEELPDPLHPDQRFHYDGKPDSVKKMKALMKKAERCEDPNAWKGPTNGGDGWIENAGDGAFYGPKIDIVVEDALRRRHQCATIQLDFNLPSRFGLKYTLPAAEKDETTVSPTEKQKHADPALTASSPAVEDCVSKPKPGTYEAAVRDLGIDLELDANQARPVMIHRAILGSLERSIAILCEHFGGDWPFWLSPRQVMVVPVSASNYEYSQQVRDTMHDAGFHADVDNGAATLDKKIRNAEKARYNFILVVGQKEQDATAVNIRARGEKRLGNKSLVEAVQWLKELADTHNREY
Purified protein
  Km: 250 ± 30 µM
